{
  "source": "patent US20080058211A1",
  "about": "“Method and Composition for the Modulation of Toxin Resistance in Plant Cells” (BOARD OF REGENTS, THE UNIVERSITY OF TEXAS SYSTEM, priority 2006, published 2008)",
  "key": {"Arabidopsis pollen [1]": {"system": "Arabidopsis pollen", "test": "in vitro pollen germination (Arabidopsis)", "assay_type": "cell-based, Arabidopsis thaliana", "experimental": "Effects of Extracellular ATPγS and AMPαS on Pollen Germination. Arabidopsis pollen was germinated in pollen germination media (PGM) containing from about zero to about 400 μM ATPγS or AMPαS. […] The method of collection included vortexing flowers in PGM creating a homogenous suspension of pollen from tens to hundreds of flowers. This method caused the release of a small amount of ATP, 2-5 μM into the PGM (data not shown).\nThe nitric oxide signaling pathway mediates the inhibition of Arabidopsis pollen germination by ATPγS. To examine the downstream effectors involved in the inhibition of Arabidopsis pollen germination by ATPγS, different agonists and antagonists of the known nitric oxide signaling pathway were examined. […] Some of the nitric oxide signaling pathway agonists are water soluble while others are DMSO soluble.\nStrains and Growth Conditions. For the experiments related to the nitric oxide-ATP signaling relationship, all Arabidopsis thaliana plants were ecotype Wassilewskija (WS), and Medicago truncatula plants were strain A17. All of the plants were grown in Metro-Mix 200 soil at 24° C. with constant light. In vitro Pollen Germination. Arabidopsis flowers in stage 12-14 (Smyth et al., 1990) or Medicago truncatula flowers in stage F3 (Firnhaber et al., 2005) were collected and vortexed for 1 min in pollen germination media (PGM) (0.01% boric acid, 1 mM MgSO4, 1 mM CaCl2, 1 mM Ca(NO3)2, 5 mM HEPES, 18% Sucrose pH 7.0). The supernatant containing the pollen was collected by pipet, and up to three rounds of vortexing of the same pollen could be pooled together. The pollen suspended in PGM was then added in 10-12 μL drops to 400 μL PGM+1% agar that had been spread as a thin film across a microscope slide. The slides and pollen were then placed into humidity chambers, petri dishes with water saturated kimwipes, and allowed to germinate at 26° C. overnight. Pictures of the germinated pollen were taken with a digital camera attached to a brightfield microscope at 40×. The digital images were scored for the percent of pollen germinated using the AlphaEase software from Alpha Innotech. Pollen with tubes that were shorter than the diameter of the pollen grain were not counted as germinated or non-germinated. The chemicals: ATPγS, AMPαS, N2, 2-O-dibutyrylguanosine 3′:5′-cyclic monophospohate (Dib cGMP), Sildenafil citrate (Viagra™, Pfizer), and 2-(N,N-Diethylamino)-diazenolate 2-oxide (NONOate) were added to the pollen/PGM suspension prior to adding the drops to the PGM+1% agar. The chemicals 1H-[1,2,4]Oxadiazolo[4,3,-a]quinoxalin-1-one (ODQ), N-[4-[1-(3-Aminopropyl)-2-hydroxy-2-nitrosohydrazino]butyl]-1,3-propanediamine (SNAP), and 3-isobutyl-1-methylxanthine (IBMX) were diluted in DMSO and added to the pollen/PGM suspension to a final concentration of DMSO of 0.1%.\nFor successful pollen germination it was critical for the plants to be healthy and growing in slightly dry soil. To achieve this, the plants were briefly watered 1-2 days before the experiment. As Johnson-Brousseau and McCormick note in their paper (Johnson-Brousseau and McCormick 2004), a solid base is necessary for best in vitro germination of Arabidopsis pollen. The pollen would not germinate in liquid PGM if not overlaid on a solid PGM+1% agar base, and the vortexing and deposition of the pollen/PGM suspension needed to take place in less than 30 minutes or germination rates dropped considerably."}, "[2]": {"system": "Medicago truncatula pollen", "test": "in vitro pollen germination (Medicago)", "assay_type": "cell-based", "experimental": "To determine if the affects of ATPγS on pollen germination was specific to Arabidopsis or a more generalized phenomenon, Medicago truncatula was also examined.\nStrains and Growth Conditions. For the experiments related to the nitric oxide-ATP signaling relationship, all Arabidopsis thaliana plants were ecotype Wassilewskija (WS), and Medicago truncatula plants were strain A17. All of the plants were grown in Metro-Mix 200 soil at 24° C. with constant light. In vitro Pollen Germination. Arabidopsis flowers in stage 12-14 (Smyth et al., 1990) or Medicago truncatula flowers in stage F3 (Firnhaber et al., 2005) were collected and vortexed for 1 min in pollen germination media (PGM) (0.01% boric acid, 1 mM MgSO4, 1 mM CaCl2, 1 mM Ca(NO3)2, 5 mM HEPES, 18% Sucrose pH 7.0). The supernatant containing the pollen was collected by pipet, and up to three rounds of vortexing of the same pollen could be pooled together. The pollen suspended in PGM was then added in 10-12 μL drops to 400 μL PGM+1% agar that had been spread as a thin film across a microscope slide. […] The digital images were scored for the percent of pollen germinated using the AlphaEase software from Alpha Innotech. Pollen with tubes that were shorter than the diameter of the pollen grain were not counted as germinated or non-germinated. […]"}, "Arabidopsis pollen tubes": {"system": "Arabidopsis pollen tubes", "test": "pollen tube elongation", "assay_type": "cell-based, Arabidopsis thaliana", "conditions": "about 0 to about 250 μM added after tubes had begun to grow", "experimental": "Arabidopsis pollen tube elongation is inhibited by ATPγS. As vesicles fuse to deliver membranes to the tip of elongating pollen tubes, ATP is likely to be released. So ATPγS and AMPαS were investigated for their ability to affect pollen tube elongation. After pollen tubes had begun to grow, from about 0 to about 250 μM ATPγS or AMPαS were added and the subsequent growth rate was determined.\nBlocking the nitric oxide signaling pathway reverses the inhibition of Arabidopsis elongation by ATPγS. The inhibition of Arabidopsis pollen tube elongation was also mediated via the NO signaling pathway. Pollen tube growth rates were measured in 0.5% DMSO with and without 100 μM ATPγS.\nMeasurements of pollen tube elongation. Pollen was germinated as described above except 10 μL drops of pollen/PGM suspension were added to 60 μL of PGM+1% agar that had been deposited into a concavity slide. The pollen was allowed to germinate for 1-2 h, so that pollen tubes were clearly visible. Then 90 μL of PGM or PGM containing ATPγS, AMPαS, DMSO or ODQ was added and a photo was taken using a brightfield microscope at 40×. The coordinates of each photo were noted, so that the exact pollen tubes could be photographed 50-60 minutes later. Using Image J, the pollen tube lengths for individual pollen tubes were measured and a growth rate of μm/min was determined."}, "[3]": {"system": "nitric oxide levels in elongating Arabidopsis pollen tubes", "test": "nitric oxide in elongating pollen tubes, DAF-2D fluorescence", "assay_type": "cell-based, Arabidopsis thaliana", "conditions": "125 μM", "experimental": "Increased extracellular ATPγS increases nitric oxide production in elongating pollen tubes. In addition to using agonists and antagonists to indirectly study the relationship of eATPγS and nitric oxide, direct measurements of increases in nitric oxide after application of ATPγS and AMPαS were examined. Pollen grains have a high level of auto-fluorescence and the nitric oxide levels in elongating Arabidopsis pollen tubes were determined using DAF-2D, a fluorescent marker for the presence of nitric oxide that was dissolved in DMSO. Elongating pollen tubes were treated with DAF-2D alone or with ATPγS or AMPαS.\nMeasurements of NO in growing pollen tubes treated with ATPγS or AMPαS. Pollen was germinated as described for the pollen elongation measurements. After 1-2 hours when pollen tubes were clearly visible, 90 μL of PGM containing 5 μM 4,5-diaminofluorescein diacetate (DAF-2D, Molecular Probes) with or without ATPγS or AMPαS was added. […] Using Image J, the average fluorescence for the pollen tubes on each slide and each time point were determined. Since background fluorescence for each slide varied, three areas where no pollen tubes were present were averaged and subtracted from the pollen tube averages for each slide. Pollen tubes with and without nucleotides were compared to each other at similar time points to determine if there was a difference in fluorescence."}, "[4]": {"system": "[Ca^2+]cyt in Arabidopsis seedlings", "conditions": "Arabidopsis seedlings (Jeter et al., 2004); cited from earlier work"}, "Δ[Ca^2+]cyt": {"system": "Δ[Ca^2+]cyt", "conditions": "co-application with OGA; cited from earlier work"}, "roots": {"system": "roots", "conditions": "in vivo; cited from earlier work"}, "Arabidopsis pollen [5]": {"system": "Arabidopsis pollen", "conditions": "cited from earlier work"}, "[6]": {"system": "root hairs of Arabidopsis thaliana", "conditions": "cited from earlier work"}, "root hairs": {"system": "root hairs", "conditions": "cited from earlier work"}, "[Ca^2+]cyt": {"system": "[Ca^2+]cyt", "conditions": "dextran-conjugated calcium green as reporter; cited from earlier work"}, "[7]": {"system": "[Ca^2+]cyt in excised roots", "conditions": "cited from earlier work"}, "[8]": {"system": "ATMEKK1, ATMPK3, ATPK19, ERF2, ERF3, ERF4 and ACS6 genes", "conditions": "application of 500 μM; cited from earlier work"}, "Arabidopsis leaves": {"system": "Arabidopsis leaves", "conditions": "applied into intercellular spaces of leaves; cited from earlier work"}, "LOX2, ACS6, PAL1": {"system": "LOX2, ACS6, PAL1", "conditions": "cited from earlier work"}, "maize roots": {"system": "maize roots", "conditions": "concentrations that inhibited gravitropic growth; cited from earlier work"}, "Arabidopsis roots": {"system": "Arabidopsis roots", "conditions": "concentrations that inhibited gravitropic growth; cited from earlier work"}},
  "data": [
    {"molecule": "Nc1ncnc2c1ncn2[C@@H]1O[C@H](COP(=O)(O)OP(=O)(O)OP(O)(O)=S)[C@@H](O)[C@H]1O", "note": "[ATPγS]", "values": [
      {"measurement": "inhibition of pollen germination", "setting": "Arabidopsis pollen [1]; 50 μM, 0.1% DMSO", "value": "inhibits"},
      {"measurement": "inhibition of pollen germination", "setting": "Arabidopsis pollen [1]; 50 μM, series with water-soluble agonists", "value": "not inhibitory"},
      {"measurement": "inhibition of pollen germination", "setting": "Arabidopsis pollen [1]; 100 μM, 0.1% DMSO", "value": "does not inhibit"},
      {"measurement": "inhibition of pollen germination", "setting": "Arabidopsis pollen [1]; 100 μM, series with water-soluble agonists", "value": "inhibitory"},
      {"measurement": "concentration from which the pollen germination rate significantly decreased", "setting": "Arabidopsis pollen [1]; PGM with about zero to about 400 μM", "value": "about 100 μM"},
      {"measurement": "concentrations required for the responses of pollen", "setting": "Arabidopsis pollen [1]; pollen germination and growth", "value": "100 to 200", "unit": "µM"},
      {"measurement": "concentration from which pollen germination rates decrease", "setting": "[2]", "value": 200, "unit": "µM"},
      {"measurement": "concentration that significantly inhibited pollen tube elongation", "setting": "Arabidopsis pollen tubes", "value": "more than 150 μM"},
      {"measurement": "DAF-2D fluorescence", "setting": "[3]", "value": "significantly increased"},
      {"measurement": "concentrations needed to induce increases in [Ca2+]cyt", "setting": "[4]", "value": "100 to 200", "unit": "µM"},
      {"measurement": "effect on Δ[Ca2+]cyt together with OGA", "setting": "Δ[Ca^2+]cyt", "value": "mutually enhanced"},
      {"measurement": "concentration that could inhibit the straight growth of roots", "setting": "roots", "value": 0.3, "unit": "mM"},
      {"measurement": "pollen germination", "setting": "Arabidopsis pollen [5]; wild-type pollen, μM levels", "value": "inhibits pollen germination"}
    ]},
    {"molecule": "Nc1ncnc2c1ncn2[C@@H]1O[C@H](COP(=O)(O)OP(=O)(O)OP(=O)(O)O)[C@@H](O)[C@H]1O", "note": "[ATP]", "values": [
      {"measurement": "induction of membrane depolarization", "setting": "[6]; applied nucleotide or phosphate", "value": "induced large depolarizations"},
      {"measurement": "EC50", "setting": "[6]; dose-response studies, read-out: half-maximal depolarization", "value": "~400", "unit": "µM"},
      {"measurement": "increase in root hair growth", "setting": "root hairs", "value": "not"},
      {"measurement": "change in [Ca2+]cyt", "setting": "[Ca^2+]cyt", "value": "no change"},
      {"measurement": "increase in [Ca2+]cyt", "setting": "[7]; 300 nM ATP, excised roots, 10 mM CaCl2, in less than about 10 seconds", "value": 2, "unit": "fold"},
      {"measurement": "[Ca2+]cyt after treatment", "setting": "[7]; 1 μM ATP, from ca. 100 nM", "value": "over 400 nM"},
      {"measurement": "abundance of mRNAs (MAP kinases, ERF2, ERF3, ERF4, ACS6)", "setting": "[8]", "value": "induced an increased abundance"},
      {"measurement": "concentration sufficient to induce significant superoxide production", "setting": "Arabidopsis leaves", "value": 500, "unit": "nM"},
      {"measurement": "message abundance for PAL1", "setting": "LOX2, ACS6, PAL1", "value": "increased"},
      {"measurement": "expression of LOX2 and ACS6", "setting": "LOX2, ACS6, PAL1; micromolar concentrations that induced superoxide production", "value": "up-regulated"},
      {"measurement": "concentration that could inhibit the straight growth of roots", "setting": "roots", "value": 3, "unit": "mM"},
      {"measurement": "auxin transport", "setting": "maize roots", "value": "inhibited auxin transport"},
      {"measurement": "auxin transport", "setting": "Arabidopsis roots", "value": "inhibited auxin transport"},
      {"measurement": "concentration shown to affect pollen germination", "setting": "Arabidopsis pollen [5]; Steinenbrunner et al., 2003", "value": "1 to 2", "unit": "mM"}
    ]}
  ]
}
